How the values were obtained:
Assay type in all cases: in vivo
[1] = system: momingglory (Ipomoea hederacea); assay: Test B pre-/postemergence; parameters: key: 0 is no effect; 10 is complete control
Outline: (§1)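 Scored visually 0 (none) to 10 (complete control) against untreated plants after twelve to sixteen greenhouse days. Test chemicals, formulated in surfactant-containing non-phytotoxic solvent, applied to soil after planting and, separately, onto 1- to 4-leaf (2–18 cm) plants.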

[2] = system: corn (Zea mays); assay: Test B pre-/postemergence; parameters: key: 0 is no effect; 10 is complete control; conditions: for Corn plant response rating: Preemergence
Outline: as §1

[3] = system: crabgrass (Digitaria sanguinalis); assay: Test B pre-/postemergence; parameters: key: 0 is no effect; 10 is complete control; conditions: for Crabgrass plant response rating: Preemergence
Outline: as §1

[4] = system: wheat (Triticum aestivum); assay: Test B pre-/postemergence; parameters: key: 0 is no effect; 10 is complete control
Outline: as §1

[5] = system: purple nutsedge (Cyperus rotundus); assay: Test B pre-/postemergence; parameters: key: 0 is no effect; 10 is complete control; conditions: Postemergence
Outline: as §1

[6] = system: blackgrass (Alopecurus myosuroides); assay: Test B pre-/postemergence; parameters: key: 0 is no effect; 10 is complete control; conditions: for Blackgrass plant response rating: Preemergence
Outline: as §1

[7] = system: giant foxtail (Setaria faberii); assay: Test B pre-/postemergence; parameters: key: 0 is no effect; 10 is complete control
Outline: as §1

[8] = system: wild oat (Avena fatua); assay: Test B pre-/postemergence; parameters: key: 0 is no effect; 10 is complete control
Outline: as §1

[9] = system: cocklebur (Xanthium strumarium); assay: Test B pre-/postemergence; parameters: key: 0 is no effect; 10 is complete control; conditions: for Cocklebur plant response rating: Preemergence
Outline: as §1

[10] = system: bedstraw (Galium aparine); assay: Test B pre-/postemergence; parameters: key: 0 is no effect; 10 is complete control; conditions: for Bedstraw plant response rating: Preemergence
Outline: as §1

[11] = system: rape (Brassica napus); assay: Test B pre-/postemergence; parameters: key: 0 is no effect; 10 is complete control
Outline: as §1

[12] = system: velvetleaf (Abutilon theophrasti); assay: Test B pre-/postemergence; parameters: key: 0 is no effect; 10 is complete control
Outline: as §1

[13] = system: sugar beet (Beta vulgaris); assay: Test B pre-/postemergence; parameters: key: 0 is no effect; 10 is complete control
Outline: as §1

[14] = system: pigweed (Amaranthus retroflexus); assay: Test B pre-/postemergence; parameters: key: 0 is no effect; 10 is complete control
Outline: as §1

[15] = system: soybean (Glycine max); assay: Test B pre-/postemergence; parameters: key: 0 is no effect; 10 is complete control
Outline: as §1

[16] = system: broadleaf signalgrass (Brachiaria decumbens); assay: Test B pre-/postemergence; parameters: key: 0 is no effect; 10 is complete control; conditions: for B. signalgrass plant response rating: Preemergence
Outline: as §1

[17] = system: bamyardgrass (Echinochloa crus-galli); assay: Test B flood test
Outline: (§2)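 Flood test on plants grown to the 2-leaf stage; treated plants kept in greenhouse twelve to sixteen days, then visually rated against controls on a 0 (no effect) to 10 (complete control) scale.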

[18] = system: smallflower flatsedge (Cyperus difformis); assay: Test B flood test
Outline: as §2

[19] = system: rice (Oryza sativa); assay: Test B flood test
Outline: as §2

[20] = system: duck salad (Heteranthera limosa); assay: Test B flood test
Outline: as §2

[21] = Rate 250 g/ha, Postemergence (so in the source)
[22] = Rate 62 g/ha, Postemergence (flood test)
[23] = Rate 125 g/ha, Postemergence, flood test
[24] = Rate 250 g/ha, Postemergence (flood test species)
[25] = Rate 125 g/ha, Postemergence section (flood test species)

SMILES: CCc1cnc(-n2cnc(C(F)(F)F)n2)nc1Cc1cccc(OC(F)(F)F)c1 [Compound 50]
- Plant response rating, Morningglory ([1]; Rate 62 g/ha, Postemergence): 3
- Morningglory plant response rating ([1]; Rate 62 g/ha, Preemergence): 1
- Morningglory plant response rating ([1]; Rate 125 g/ha, Postemergence): 3
- Morningglory plant response rating ([1]; Rate 125 g/ha, Preemergence): 3
- Plant response rating, Morningglory ([1]; Rate 250 g/ha, Postemergence): 3
- Plant response rating, Morningglory [1, 21]: 4
- Plant response rating, Corn ([2]; Rate 62 g/ha, Postemergence): 1
- Corn plant response rating ([2]; Rate 62 g/ha): 0
- Plant response rating, Corn ([2]; Rate 125 g/ha, Postemergence): 2
- Corn plant response rating ([2]; Rate 125 g/ha): 0
- Plant response rating, Corn ([2]; Rate 250 g/ha, Postemergence): 2
- Plant response rating, Corn [2, 21]: 0
- Plant response rating, Crabgrass ([3]; Rate 62 g/ha, Postemergence): 1
- Crabgrass plant response rating ([3]; Rate 62 g/ha): 6
- Plant response rating, Crabgrass ([3]; Rate 125 g/ha, Postemergence): 2
- Crabgrass plant response rating ([3]; Rate 125 g/ha): 9
- Plant response rating, Crabgrass ([3]; Rate 250 g/ha, Postemergence): 6
- Plant response rating, Crabgrass [3, 21]: 9
- Wheat plant response rating ([4]; Rate 62 g/ha, Postemergence): 3
- Wheat plant response rating ([4]; Rate 62 g/ha, Preemergence): 1
- Wheat plant response rating ([4]; Rate 125 g/ha, Postemergence): 3
- Plant response rating, Wheat ([4]; Rate 125 g/ha, Preemergence): 2
- Plant response rating, Wheat ([4]; Rate 250 g/ha, Postemergence): 4
- Plant response rating, Wheat [4, 21]: 2
- Plant response rating, Nutsedge ([5]; Rate 62 g/ha): 2
- Nutsedge plant response rating ([5]; Rate 125 g/ha): 2
- Plant response rating, Nutsedge ([5]; Rate 250 g/ha): 2
- Plant response rating, Blackgrass ([6]; Rate 62 g/ha, Postemergence): 2
- Blackgrass plant response rating ([6]; Rate 62 g/ha): 3
- Plant response rating, Blackgrass ([6]; Rate 125 g/ha, Postemergence): 5
- Blackgrass plant response rating ([6]; Rate 125 g/ha): 5
- Plant response rating, Blackgrass ([6]; Rate 250 g/ha, Postemergence): 8
- Plant response rating, Blackgrass [6, 21]: 10
- Plant response rating, Giant foxtail ([7]; Rate 62 g/ha, Postemergence): 1
- Giant foxtail plant response rating ([7]; Rate 62 g/ha, Preemergence): 2
- Giant foxtail plant response rating ([7]; Rate 125 g/ha, Postemergence): 2
- Giant foxtail plant response rating ([7]; Rate 125 g/ha, Preemergence): 7
- Plant response rating, Giant foxtail ([7]; Rate 250 g/ha, Postemergence): 2
- Plant response rating, Giant foxtail [7, 21]: 8
- Wild oats plant response rating ([8]; Rate 62 g/ha, Postemergence): 2
- Wild oats plant response rating ([8]; Rate 62 g/ha, Preemergence): 3
- Wild oats plant response rating ([8]; Rate 125 g/ha, Postemergence): 3
- Plant response rating, Wild oats ([8]; Rate 125 g/ha, Preemergence): 4
- Plant response rating, Wild oats ([8]; Rate 250 g/ha, Postemergence): 4
- Plant response rating, Wild oats [8, 21]: 8
- Plant response rating, Cocklebur ([9]; Rate 62 g/ha, Postemergence): 4
- Cocklebur plant response rating ([9]; Rate 62 g/ha): 0
- Plant response rating, Cocklebur ([9]; Rate 125 g/ha, Postemergence): 4
- Cocklebur plant response rating ([9]; Rate 125 g/ha): 0
- Plant response rating, Cocklebur ([9]; Rate 250 g/ha, Postemergence): 7
- Plant response rating, Cocklebur [9, 21]: 0
- Plant response rating, Bedstraw ([10]; Rate 62 g/ha, Postemergence): 9
- Bedstraw plant response rating ([10]; Rate 62 g/ha): 2
- Plant response rating, Bedstraw ([10]; Rate 125 g/ha, Postemergence): 10
- Bedstraw plant response rating ([10]; Rate 125 g/ha): 7
- Plant response rating, Bedstraw [10, 21]: 9
- Plant response rating, Rape ([11]; Rate 62 g/ha, Postemergence): 9
- Rape plant response rating ([11]; Rate 62 g/ha, Preemergence): 6
- Rape plant response rating ([11]; Rate 125 g/ha, Postemergence): 10
- Rape plant response rating ([11]; Rate 125 g/ha, Preemergence): 10
- Plant response rating, Rape ([11]; Rate 250 g/ha, Postemergence): 10
- Plant response rating, Rape [11, 21]: 10
- Plant response rating, Velvetleaf ([12]; Rate 62 g/ha, Postemergence): 6
- Velvetleaf plant response rating ([12]; Rate 62 g/ha, Preemergence): 4
- Velvetleaf plant response rating ([12]; Rate 125 g/ha, Postemergence): 7
- Plant response rating, Velvetleaf ([12]; Rate 125 g/ha, Preemergence): 7
- Plant response rating, Velvetleaf ([12]; Rate 250 g/ha, Postemergence): 8
- Plant response rating, Velvetleaf [12, 21]: 9
- Plant response rating, Sugarbeets ([13]; Rate 62 g/ha, Postemergence): 7
- Sugarbeets plant response rating ([13]; Rate 62 g/ha, Preemergence): 6
- Sugarbeets plant response rating ([13]; Rate 125 g/ha, Postemergence): 8
- Plant response rating, Sugarbeets ([13]; Rate 125 g/ha, Preemergence): 6
- Plant response rating, Sugarbeets ([13]; Rate 250 g/ha, Postemergence): 10
- Plant response rating, Sugarbeets [13, 21]: 10
- Plant response rating, Redroot pigweed ([14]; Rate 62 g/ha, Postemergence): 8
- Redroot pigweed plant response rating ([14]; Rate 62 g/ha, Preemergence): 7
- Redroot pigweed plant response rating ([14]; Rate 125 g/ha, Postemergence): 8
- Redroot pigweed plant response rating ([14]; Rate 125 g/ha, Preemergence): 9
- Plant response rating, Redroot pigweed ([14]; Rate 250 g/ha, Postemergence): 9
- Plant response rating, Redroot pigweed [14, 21]: 9
- Plant response rating, Soybean ([15]; Rate 62 g/ha, Postemergence): 6
- Soybean plant response rating ([15]; Rate 62 g/ha, Preemergence): 1
- Soybean plant response rating ([15]; Rate 125 g/ha, Postemergence): 7
- Plant response rating, Soybean ([15]; Rate 125 g/ha, Preemergence): 1
- Plant response rating, Soybean ([15]; Rate 250 g/ha, Postemergence): 7
- Plant response rating, Soybean [15, 21]: 1
- Plant response rating, B. signalgrass ([16]; Rate 62 g/ha, Postemergence): 1
- B. signalgrass plant response rating ([16]; Rate 62 g/ha): 0
- Plant response rating, B. signalgrass ([16]; Rate 125 g/ha, Postemergence): 1
- B. signalgrass plant response rating ([16]; Rate 125 g/ha): 1
- Plant response rating, B. signalgrass ([16]; Rate 250 g/ha, Postemergence): 2
- Plant response rating, B. signalgrass ([16]; Rate 250 g/ha, Postemergence as printed in head r139 (second section for compounds 26-50)): 1
- Plant response rating, Barnyardgrass [17, 22]: 3
- Plant response rating, Barnyardgrass [17, 23]: 4
- Plant response rating, Barnyardgrass [17, 24]: 4
- Plant response rating, S. Flatsedge [18, 22]: 6
- S. Flatsedge plant response rating [18, 25]: 8
- Plant response rating, S. Flatsedge [18, 24]: 9
- Plant response rating, Rice [19, 22]: 2
- Rice plant response rating [19, 25]: 3
- Plant response rating, Rice [19, 24]: 4
- Plant response rating, Ducksalad [20, 22]: 4
- Plant response rating, Ducksalad [20, 23]: 5
- Plant response rating, Ducksalad [20, 24]: 8
